Reference: patent US20230107186A1, “COBICISTAT FOR PREVENTION AND/OR TREATMENT OF CORONAVIRUS INFECTIONS” (priority 2020, published 2023)
pEC50, pIC50: −log10 of the molar value. Where a SMILES comes first, the peptide text is derived from it. The star is where a group is joined. Cbz = O=C(OCc1ccccc1)*

Assays:
3CLpro = 3CLpro (Severe acute respiratory syndrome coronavirus 2, UniProt P0DTD1); experiment: 3CLpro FRET assay; assay type: biochemical, SARS-CoV-2
SARS-CoV-2 [1] = experiment: Inhibition of SARS-CoV-2 replication in cell lines (viral RNA by qPCR); assay type: cell-based
[2] = Viability of uninfected cell lines (MTT assay); assay type: cell-based, human; african green monkey; conditions: human (Calu-3, T84); African green monkey (Vero E6); uninfected Calu-3, T84, Vero E6; 48 h; MTT; read-out: half cytotoxic concentration (CC50) range
Protocol: (§1) D) Uninfected cell lines of lung (Calu-3), gut (T84) and kidney (Vero E6) origin were left untreated or treated with serial dilutions of cobicistat. Forty-eight hours post-treatment cellular viability was measured by MTT assay. Data, expressed as mean±SD of three independent experiments, were normalized to the untreated control and CC50 values were calculated by nonlinear regression.
(§2) Cell viability was evaluated by (3-[4,5-dimethylthiazol-2-yl]-2,5 diphenyl tetrazolium bromide) (MTT) assay and by crystal violet staining as previously described (Shytaj et al. 2020; Feoktistova, Geserick, and Leverkus 2016). Briefly, the MTT assay was conducted using the CellTiter 96® Non-Radioactive Cell Proliferation Assay (MTT) (Promega; Madison, Wis., USA). Cells were plated in a 96-well plate at a concentration of 3×10^6 cells/mL in 100 μl of medium. The MTT solution (15 μl) was added to each well and, after 2-4 h, the reaction was stopped by the addition of 100 μl of 10% SDS. Absorbance values were acquired using an Infinite 200 PRO (Tecan, Männedorf, Switzerland) multimode plate reader at 570 nm wavelength.
(§3) Data normality assumptions were tested by D'Agostino & Pearson normality test (for >3). […] Synergy scores were calculated using the SynergyFinder web-tool (Ianevski et al. 2020) using the Zero Interaction Potency (ZIP) model (Yadav et al. 2015).

[3] = tested on: Calu-3, T84 and Vero E6 cells; experiment: Viability of uninfected cell lines (MTT assay); assay type: cell-based, human; african green monkey; conditions: cobicistat 5-10 μM
Protocol: as §1, §2, §3

SARS-CoV-2 S-protein = SARS-CoV-2 S-protein (Severe acute respiratory syndrome coronavirus 2, UniProt P0DTC2); experiment: Syncytia formation assay in Vero E6 cells transfected with the S-protein; assay type: cell-based
SARS-CoV-2 [4] = assay type: cell-based; conditions: cobicistat 5-10 μM; MTT and crystal violet; Calu-3, T84, Vero E6
HIV-1 protease = HIV-1 protease (Human immunodeficiency virus type 1 group M subtype B, UniProt P04585); conditions: read-out: EC50 against the HIV-1 protease; selleckchem product page; cited from earlier work
[5] = humans, standard dosing 150 mg/day; cited from earlier work
[6] = mice, 50 mg/Kg; cited from earlier work

Structure (SMILES)	effect on catalytic activity of 3CLpro (3CLpro)	viral RNA release in supernatant (SARS-CoV-2 [1]; Calu-3, Vero E6, T84, MOI 0.05 and 0.5, treated 2 h post-infection)	virus RNA amounts by qPCR, intracellular and supernatant (SARS-CoV-2 [1]; Calu-3 cells, time course, low micromolar concentrations)	pIC50 (SARS-CoV-2 [1]; Severe acute respiratory syndrome coronavirus 2, 48 h, read-out: range of IC50 concentrations)	CC50 at 48 h [2] [µM]	tolerability by uninfected cells [3]	concentration range with effect in syncytia assay (SARS-CoV-2 S-protein) [µM]	syncytia formation (SARS-CoV-2 S-protein; 24 h post transfection)	viability of infected cells (SARS-CoV-2 [4])	pEC50 (HIV-1 protease)	maximum plasma concentrations [5]	plasma levels compared with in vitro IC50 and CC50 [6]
CC(C)C[C@@H](C=O)NC(=O)[C@H](CC(C)C)NC(=O)[C@H](CC(C)C)NC(=O)OCc1ccccc1 [MG-132] (Cbz-Leu-Leu-Leu-aldehyde)	potently reduced the catalytic activity											
CC(C)c1nc(CN(C)C(=O)N[C@@H](CCN2CCOCC2)C(=O)N[C@H](CC[C@H](Cc2ccccc2)NC(=O)OCc2cncs2)Cc2ccccc2)cs1 [Cobicistat, 1,3-thiazol-5-ylmethyl [(2R,5R)-5-{[(2S)-2-({[(2-isopropyl-1,3-thiazol-4-yl)methyl](methyl)carbamoyl}amino)-4-(morpholin-4-yl)butanoyl]amino}-1,6-diphenylhexan-2-yl]carbamate]	inactive	dose dependent effect in decreasing viral RNA release	dose dependent inhibitory effect	5.06 to 6.24	38.7 to 53	well tolerated	5 to 10	decreased syncytia formation	partially rescue viability of infected cells	< 4.52	≈ 1 μM	clearly above all IC50 values calculated in our experiments, while remaining below the CC50 concentrations
